{"source": "patent US20030162721A1", "about": "“PHARMACEUTICAL COMPOSITION CONTAINING PEPTICHEMIO” (priority 1997, published 2003)", "origin": "cited, not measured here", "system": "RPMI 8322 melanoma cells"}
{"substance": "L-prolyl-m-sarcolysyl-L-p-fluorophenylalanine [PSF]", "values": [{"measurement": "times more toxic than m-sarcolysine", "setting": "relative to m-sarcolysine", "result": 28, "unit": "times"}, {"measurement": "times more toxic than melphalan", "setting": "relative to melphalan", "result": 35, "unit": "times"}]}
